Measured values reported in PMC7507342, “A Cell‐Free Platform Based on Nisin Biosynthesis for Discovering Novel Lanthipeptides and Guiding their Overproduction In Vivo” (Advanced Science, 2020).
Non-standard residues stand in square brackets, D forms with d. No end group written: not given here. Dhb = C/C=C(\N)C(=O)O; Dha = C=C(N)C(=O)O

Experiments:
M. luteus = test: MIC determination in 96-well plates; assay type: cell-based, Micrococcus luteus; conditions: for MIC M. luteus: 96-well plate, bioassay medium, 5.0 × 10^5 CFU mL^−1, 37 °C, 24 h, OD600, n=3
Source text: (§1) The CFPS system is for quick screening of potential antimicrobial lanthipeptides, and we then purified enough compounds of the screened nisin analogs for structure identification and activity assays. We prepared mLanAs for the novel lanthipeptides (RL6, RL8, RL13, and RL14) in E. coli (Table S2, Supporting Information) and removed their leader peptides in vitro, as it is more economical to mass produce targeted lanthipeptides using this previously reported method^[ ^4 ^] rather than to use CFPS to mass produce lanthipeptides. Nisin and most lanthipeptides are not pure products in the commercially available and standard products, they are a mixture of different dehydrating ingredients resulting from incomplete NisB catalysis. Therefore, we verified that the decisive antibacterial component in the currently commercially available nisin is the eightfold dehydrated component (Figure S5, Supporting Information). […] We treated the novel lanthipeptides with the thiol‐alkylating reagent N‐ethylmaleimide (NEM) to sequester any noncyclic Cys residues, and evaluated ring topology using LC‐MS (Figure S7, Supporting Information). […] We quantified these four novel lanthipeptides using the purified eight‐fold dehydrated component of nisin as a standard.
(§2) MICs were determined according to a previously described method^[ ^38 ^] with minor modifications. Briefly, the test medium for clinical strain species was MHB broth (BD Difco), LB broth was used for E. coli, and bioassay medium containing 1.2% tryptone, 0.75% yeast extract, 0.75% NaCl, 0.3% NaH2PO4, and 0.75% glucose was used for M. luteus. Bacteria were grown overnight to the early stationary phase and adjusted in corresponding culture medium to 5.0 × 10^5 CFU mL^−1 in the wells of 96‐well microtiter plates, mixed with varying concentrations of test compounds, and incubated at 37 °C for 24 h. Cell growth was evaluated by measuring the optical density at 600 nm, and the MIC was defined as the lowest compound concentration at which no bacterial growth was observed.
(§3) Table S3. MIC Values of Several Lanthipeptides Against Microorganisms
(§4) MIC* mg/L(μM) M. luteus E. faecalis S. aureus MRSA
(§5) Note: * The test lanthipeptide is a mixture of different dehydration molecules . Quantification of
(§6) lanthipeptides was performed using the eight-fold dehydrated molecules (n=3). The data

[1] = test system: S. aureus (clinical pathogenic strain); test: MIC determination in 96-well plates; assay type: cell-based, Staphylococcus aureus; conditions: 96-well plate, MHB broth, 5.0 × 10^5 CFU mL^−1, 37 °C, 24 h, OD600, quantified as eight-fold dehydrated molecules, n=3
Source text: as §1, §2, §3, §4, §5, §6

[2] = test system: MRSA (clinical pathogenic strain); test: MIC determination in 96-well plates; assay type: cell-based, methicillin‐resistant S. aureus; conditions: 96-well plate, MHB broth, 5.0 × 10^5 CFU mL^−1, 37 °C, 24 h, OD600, quantified as eight-fold dehydrated molecules, n=3
Source text: as §1, §2, §3, §4, §5, §6

[3] = test system: E. faecalis (clinical pathogenic strain); test: MIC determination in 96-well plates; assay type: cell-based, Enterococcus faecalis; conditions: for MIC E. faecalis: 96-well plate, MHB broth, 5.0 × 10^5 CFU mL^−1, 37 °C, 24 h, OD600, quantified as eight-fold dehydrated molecules, n=3
Source text: as §1, §2, §3, §4, §5, §6

E. coli DH5α = E. coli DH5α growth (OD600) in LB medium with EDTA and purified lanthipeptide; assay type: cell-based, Escherichia coli
Procedure: Figure 4 Screening of nisin mutants using the CFPS system. A) Schematic illustration of the screening for nisin mutants. B) Nisin and nisin mutants. Dha, dehydrolalanine; Dhb, dehydrobutyrine; Abu, 2‐aminobutyric acid. C) Heat‐map of antimicrobial activity of nisin mutants against E. coli in the second round of screening. After adding the CFPS mixture to E. coli and incubating for 8 h, the ΔOD600 value represents the OD600 of E. coli with added nisin mutant CFPS mixture minus the OD600 (control group) of E. coli with nisin CFPS mixture in the same plate. Yellow areas represent an inhibitory effect on E. coli. […] The test lanthipeptide is a mixture of different dehydration molecules, quantification of lanthipeptides was performed using the eightfold dehydrated molecules. […]
Next, to verify the reliability of the CFPS platform for screening, abundant lanthipeptides are required to characterize the structure and anti‐E. coli ability of the mutants. […] The structures were identified by LC‐MS‐MS (Figure 4B; Figure S6, Supporting Information) and the […] rings were detected by NEM reaction (Figure S7, Supporting Information). […]
Figure S8. OD600 of E. coli DH5α in LB Medium with Different Concentrations of EDTA and Nisin after 18 h of Co-culture (n=3) ΔOD600 indicates the difference between readings with different concentrations of blank media. […]

[4] = test system: Micrococcus luteus NCIB 8166; test: Agar diffusion bioassay of CFPS mixture; assay type: cell-based; conditions: agar diffusion method; CFPS reaction 6 h
Procedure: We evaluated the performance of our CFPS platform for nisin biosynthesis. Each plasmid (0.5 nmol L^−1) (pJL1‐nisZ, pET28a‐nisB, pET28a‐nisC, and pET28a‐nisP) was added into the CFPS platform and incubated for 6 h (Figure 1A). The 400 µL of reaction mixture was concentrated to 20 µL and the concentrated mixture was then detected by tandem mass spectrometry (LC‐MS‐MS). The results confirmed that fully modified nisin Z was produced in the CFPS mixture (Figure 1B).
These hybrid precursor peptides were then cloned into the pJL1 plasmid. Bagelicin, a nisin analog with antibacterial activity that was identified using a previously described in vivo screening system,^[ ^5 ^] was chosen as the positive control for validation. The pJL1‐nisZ plasmid in our CFPS platform was replaced with the hybrid precursor peptide plasmids (pRL1‐pRL18 and pJL1‐bagelicin). After incubation for 6 h, the bagelicin CFPS mixture (positive control) was analyzed by LC‐MS‐MS and bioassays.
The activity levels of nisin and new lanthipeptides were determined by a previously described agar diffusion method, with minor modifications.^[ ^37 ^] Briefly, a stock nisin solution 1000 IU mL^−1) was prepared by adding 50 mg of commercial nisin (10^6 IU g^−1; Sigma‐Aldrich, St. Louis, MO, USA) into 50 mL of sterile 0.02 mol L^−1 HCl. […]

[5] = mixture of dehydration molecules quantified as eight-fold dehydrated molecules
[6] = value in parentheses, quantified as eight-fold dehydrated molecules
[7] = summary of Table S3 in the text

| Substance | MIC M. luteus (M. luteus; [5]) | MIC M. luteus (M. luteus; [6]) | MIC S. aureus [1] | MIC S. aureus ([1]; value in parentheses) | MIC MRSA [2] | MIC MRSA ([2]; value in parentheses) | MIC E. faecalis [3] | MIC E. faecalis ([3]; value in parentheses) | antibacterial activity against M. luteus (in words) (M. luteus; [7]) | antibacterial activity against E. faecalis (in words) [3, 7] | inhibition of E. coli DH5α growth with EDTA (OD600) (E. coli DH5α; 320 μM EDTA, nisin Z 24, 48, 96 μM, 18 h co-culture, n=3 (Figure S8)) | inhibition of E. coli DH5α growth at 20-fold the reported nisin concentration (E. coli DH5α; 18 h co-culture (Figure S8)) | antibacterial activity of CFPS mixture on M. luteus plate (in words) [4] |
| --- | --- | --- | --- | --- | --- | --- | --- | --- | --- | --- | --- | --- | --- |
| IT SKSLC TPGCKTGALMT CPIKTAT CGCHFGN (bicyclic or more) [RL13, novel lanthipeptide, nisin analog, core peptide from Streptococcus equinus] | 0.24 µg/mL | 0.077 µM | > 250 µg/mL | > 80.8 µM | > 250 µg/mL | > 80.8 µM | 250 µg/mL | 80.8 µM | – | – | – | – | – |
| IT SKSLC TPGCVTGVLMGCALKTIT CNC SVGIGKK (bicyclic or more) [RL14, novel lanthipeptide, nisin analog, core peptide from Enterococcus rotai/Enterococcus moraviensis] | 0.015 µg/mL | 0.0045 µM | 250 µg/mL | 74.75 µM | 250 µg/mL | 74.75 µM | 62.5 µg/mL | 18.69 µM | outperforming nisin | outperforming nisin | – | – | – |
| IT SVSLC TPGCKTGALMGCNMKTAS CGCHVHVSK (bicyclic or more) [RL6, novel lanthipeptide, nisin analog, core peptide from Leuconostoc gelidum] | 0.12 µg/mL | 0.037 µM | > 250 µg/mL | > 76.17 µM | > 250 µg/mL | > 76.17 µM | 250 µg/mL | 76.17 µM | – | – | – | – | – |
| Nisin A: commercialized nisin, class I lanthipeptide, food preservative (I[Dhb]SI[Dha]LCTPGCKTGALMGCNMKTATCHCSIHV[Dha]K; cysteine pairing not given here; also: lanthipeptide thioether crosslinks and dehydrated residues, positions not given here; UniProt P13068 24-57, looked up) [reference compound] | 0.06 µg/mL | 0.018 µM | 125 µg/mL | 37.27 µM | 125 µg/mL | 37.27 µM | 250 µg/mL | 74.53 µM | – | – | – | – | – |
| Nisin Z: type I lanthipeptide nisin Z, synthesized by CFPS or from mLanA expressed in E. coli (I[Dhb]SI[Dha]LCTPGCKTGALMGCNMKTATCNCSIHV[Dha]K; cysteine pairing not given here; also: lanthipeptide thioether crosslinks and dehydrated residues, positions not given here; UniProt P29559 24-57, looked up) [reference compound] | 0.12 µg/mL | 0.036 µM | 250 µg/mL | 75.05 µM | 125 µg/mL | 37.52 µM | 250 µg/mL | 75.05 µM | – | – | obvious | did not exhibit | obvious zone of inhibition |
| VT SISLC TPGCKTGILMT CAIKTAT CGCHF [Bagelicin] | – | – | – | – | – | – | – | – | – | – | – | – | contained anti‐M. luteus activity |
| VT SKSLC TPGCKTGILQT CAIKSAT CGC SIHIGK (bicyclic or more) [RL8, novel lanthipeptide, nisin analog, core peptide from Bacillus cereus] | 0.24 µg/mL | 0.073 µM | > 250 µg/mL | > 76.52 µM | > 250 µg/mL | > 76.52 µM | 250 µg/mL | 76.52 µM | – | – | – | – | – |
